According to patent US9156801B2, “2-substituted oleanolic acid derivative, method preparing for same, and application thereof” (HANGZHOU BENSHENG PHARMACEUTICAL CO., LTD., priority 2011, dated 2015):
In brackets after ≈: the same amount, converted by molar mass.

Key:
[1] = tested on: H9 cell line; test: leukemia cell growth inhibition, MTT; type: cell-based; details: Homo sapiens; for IC50: H9, 72 h; for inhibition at 16 µg/mL: H9, 16 μg/mL compound, 72 h, read-out: IR (cell proliferation inhibition rate)
Procedure, shortened: (§1)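 Leukemia cells (6000 per well) are grown in 1640 medium containing 10% fetal bovine serum, treated with several concentrations of test derivative, and incubated 72 hours at 37° C in 5% CO2. The relative viable count is then measured by MTT.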

[2] = tested on: NB4 cell line; test: leukemia cell growth inhibition, MTT; type: cell-based; details: Homo sapiens, NB-4; for inhibition at 16 µg/mL: NB4, 16 μg/mL compound, 72 h, read-out: IR (cell proliferation inhibition rate); for IC50: NB4, 72 h
Procedure, shortened: as §1

[3] = tested on: Kasumi-1 cell line; test: leukemia cell growth inhibition, MTT; type: cell-based; details: Homo sapiens; for inhibition at 16 µg/mL: Kasumi-1, 16 μg/mL compound, 72 h, read-out: IR (cell proliferation inhibition rate); for IC50: Kasumi-1, 72 h
Procedure, shortened: as §1

[4] = tested on: K562/adr cell line; test: leukemia cell growth inhibition, MTT; type: cell-based; details: Homo sapiens, 72 h; for IC50: K562/Adr; for inhibition at 16 µg/mL: K562/adr, 16 μg/mL compound, read-out: IR (cell proliferation inhibition rate)
Procedure, shortened: as §1

[5] = tested on: Jurkat cell line; test: leukemia cell growth inhibition, MTT; type: cell-based; details: Homo sapiens, 72 h; for inhibition at 16 µg/mL: 16 μg/mL compound, read-out: IR (cell proliferation inhibition rate)
Procedure, shortened: as §1

[6] = tested on: Hep G2 cell line; test: solid tumor cell growth inhibition, MTT; type: cell-based, human; details: Homo sapiens; for inhibition at 16 µg/mL: HepG2, 72 h, Hep G2, 16 μg/mL compound, 72 h, read-out: IR (cell proliferation inhibition rate); for IC50: HepG2, Hep G2, 72 h
Procedure, shortened: (§2)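 Cells grown in DMEM high glucose supplemented with 10% fetal bovine serum were plated at 4000 per well. After 24 h at 37° C in 5% CO2, varying compound concentrations were added for a further 72 h before MTT determination of viable cells.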

[7] = tested on: U87 MG cell line; test: solid tumor cell growth inhibition, MTT; type: cell-based; details: Homo sapiens, U-87 MG, 72 h; for inhibition at 16 µg/mL: 16 μg/mL compound, read-out: IR (cell proliferation inhibition rate)
Procedure, shortened: as §2

[8] = tested on: Hep-2 cell line; test: solid tumor cell growth inhibition, MTT; type: cell-based; details: Homo sapiens; for IC50: HEp-2, 72 h; for inhibition at 16 µg/mL: Hep-2, 16 μg/mL compound, 72 h, read-out: IR (cell proliferation inhibition rate)
Procedure, shortened: as §2

[9] = tested on: RKO cell line; test: solid tumor cell growth inhibition, MTT; type: cell-based; details: Homo sapiens, 72 h; for inhibition at 16 µg/mL: 16 μg/mL compound, read-out: IR (cell proliferation inhibition rate)
Procedure, shortened: as §2

[10] = tested on: SK-OV-3 cell line; test: solid tumor cell growth inhibition, MTT; type: cell-based; details: Homo sapiens; for IC50: SK-OV-3, 72 h; for inhibition at 16 µg/mL: SK-OV-3, 16 μg/mL compound, 72 h, read-out: IR (cell proliferation inhibition rate)
Procedure, shortened: as §2

[11] = tested on: MG-63 cell line; test: solid tumor cell growth inhibition, MTT; type: cell-based; details: Homo sapiens; for IC50: MG-63, 72 h; for inhibition at 16 µg/mL: MG-63, 16 μg/mL compound, 72 h, read-out: IR (cell proliferation inhibition rate)
Procedure, shortened: as §2

[12] = tested on: PC-3 cell line; test: solid tumor cell growth inhibition, MTT; type: cell-based; details: Homo sapiens; for IC50: PC-3, 72 h; for inhibition at 16 µg/mL: PC-3, 16 μg/mL compound, 72 h, read-out: IR (cell proliferation inhibition rate)
Procedure, shortened: as §2

[13] = tested on: PANC-1 cell line; test: solid tumor cell growth inhibition, MTT; type: cell-based; details: Homo sapiens; for IC50: PANC-1, 72 h; for inhibition at 16 µg/mL: PANC-1, 16 μg/mL compound, 72 h, read-out: IR (cell proliferation inhibition rate)
Procedure, shortened: as §2

[14] = tested on: A549 cell line; test: solid tumor cell growth inhibition, MTT; type: cell-based; details: Homo sapiens; for IC50: A549, 72 h; for inhibition at 16 µg/mL: A549, 16 μg/mL compound, 72 h, read-out: IR (cell proliferation inhibition rate)
Procedure, shortened: as §2

[15] = tested on: Hela cell line; test: solid tumor cell growth inhibition, MTT; type: cell-based; details: Homo sapiens, 72 h; for IC50: HeLa; for inhibition at 16 µg/mL: Hela, 16 μg/mL compound, read-out: IR (cell proliferation inhibition rate)
Procedure, shortened: as §2

[16] = tested on: CNE cell line; test: solid tumor cell growth inhibition, MTT; type: cell-based; details: Homo sapiens, 72 h; for inhibition at 16 µg/mL: 16 μg/mL compound, read-out: IR (cell proliferation inhibition rate)
Procedure, shortened: as §2

[17] = tested on: MGC 803 cell line; test: solid tumor cell growth inhibition, MTT; type: cell-based; details: Homo sapiens; for inhibition at 16 µg/mL: MGC 803, 16 μg/mL compound, 72 h, read-out: IR (cell proliferation inhibition rate); for IC50: MGC 803, 72 h
Procedure, shortened: as §2

[18] = tested on: Becap37 cell line; test: solid tumor cell growth inhibition, MTT; type: cell-based; details: Homo sapiens; for inhibition at 16 µg/mL: Becap37, 16 μg/mL compound, 72 h, read-out: IR (cell proliferation inhibition rate); for IC50: Becap37, 72 h
Procedure, shortened: as §2

[19] = tested on: CaES-17 cell line; test: solid tumor cell growth inhibition, MTT; type: cell-based; details: Homo sapiens, CaEs17; for inhibition at 16 µg/mL: CaES-17, 16 μg/mL compound, 72 h, read-out: IR (cell proliferation inhibition rate); for IC50: CaES-17, 72 h
Procedure, shortened: as §2

[20] = tested on: RPMI8226 cell line; test: multiple myeloma cell growth inhibition, MTT; type: cell-based; details: Homo sapiens, RPMI-8226; for inhibition at 16 µg/mL: RPMI8226, 16 μg/mL compound, 72 h, read-out: IR (cell proliferation inhibition rate); for IC50: RPMI8226, 72 h
Procedure, shortened: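 RPMI8226 cells (6000 per well) in RPMI 1640 with 10% FBS were exposed to several concentrations of compound for 72 h at 37° C and 5% CO2. Viable cells were quantified by MTT, with inhibition set to 0% in untreated controls.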

Structure (SMILES)	IC50 [1]	inhibition at 16 µg/mL [1]	inhibition at 16 µg/mL [2]	IC50 [2]	inhibition at 16 µg/mL [3]	IC50 [3]	IC50 [4]	inhibition at 16 µg/mL [4]	inhibition at 16 µg/mL [5]	IC50 [5]	inhibition at 16 µg/mL [6]	IC50 [6]	inhibition at 16 µg/mL [7]	IC50 [7]	IC50 [8]	inhibition at 16 µg/mL [8]	inhibition at 16 µg/mL [9]	IC50 [9]	IC50 [10]	inhibition at 16 µg/mL [10]	other results
COC(=O)[C@]12CCC(C)(C)CC1C1=CCC3[C@@]4(C)CC(C(=O)NCCCN5CCN(C)CC5)C(=O)C(C)(C)C4CC[C@@]3(C)[C@]1(C)CC2 (some centres unmarked) [BS-OA-078]	4.33 mg/L (≈ 6.64 µM)	97.5%	100%	4.59 mg/L (≈ 7.04 µM)	97.9%	5.67 mg/L (≈ 8.7 µM)	0.89 mg/L (≈ 1.37 µM)	99.1%	98.3%	2.5 mg/L (≈ 3.83 µM)	99.7%	4.77 mg/L (≈ 7.32 µM)	98.6%	3 mg/L (≈ 4.6 µM)	8.25 mg/L (≈ 12.7 µM)	97.3%	97.5%	3.91 mg/L (≈ 6 µM)	5.49 mg/L (≈ 8.42 µM)	98.9%	IC50 [11]: 5.7 mg/L (≈ 8.74 µM); inhibition at 16 µg/mL [11]: 100%; IC50 [12]: 6.82 mg/L (≈ 10.5 µM); inhibition at 16 µg/mL [12]: 98.4%; IC50 [13]: 9.69 mg/L (≈ 14.9 µM); inhibition at 16 µg/mL [13]: 100%; IC50 [14]: 3.58 mg/L (≈ 5.49 µM); inhibition at 16 µg/mL [14]: 97.6%; IC50 [15]: 4.54 mg/L (≈ 6.96 µM); inhibition at 16 µg/mL [15]: 99.4%; inhibition at 16 µg/mL [16]: 99.7%; IC50 [16]: 5.01 mg/L (≈ 7.68 µM); inhibition at 16 µg/mL [17]: 99.5%; IC50 [17]: 5.26 mg/L (≈ 8.07 µM); inhibition at 16 µg/mL [18]: 98.1%; IC50 [18]: 6.23 mg/L (≈ 9.56 µM); inhibition at 16 µg/mL [19]: 99.4%; IC50 [19]: 3.61 mg/L (≈ 5.54 µM); inhibition at 16 µg/mL [20]: 99.1%; IC50 [20]: 0.74 mg/L (≈ 1.14 µM)
CC1(C)CC[C@]2(C(=O)O)CC[C@]3(C)C(=CC[C@@H]4[C@@]5(C)CC(C(=O)NCCN6CCCC6)C(=O)C(C)(C)[C@@H]5CC[C@]43C)[C@@H]2C1 (some centres unmarked) [BS-OA-105]	> 16 mg/L	31.5%	74.7%	10.6 mg/L (≈ 17.8 µM)	36.6%	> 16 mg/L	6.52 mg/L (≈ 11 µM)	85%	37.5%	> 16 mg/L	29.5%	> 16 mg/L	61.7%	2.31 mg/L (≈ 3.88 µM)	> 16 mg/L	28.4%	8.6%	> 16 mg/L	> 16 mg/L	5%	IC50 [11]: 12.6 mg/L (≈ 21.1 µM); inhibition at 16 µg/mL [11]: 54.6%; IC50 [12]: > 16 mg/L; inhibition at 16 µg/mL [12]: 18.4%; IC50 [13]: > 16 mg/L; inhibition at 16 µg/mL [13]: 16.9%; IC50 [14]: > 16 mg/L; inhibition at 16 µg/mL [14]: 24%; IC50 [15]: 7.29 mg/L (≈ 12.3 µM); inhibition at 16 µg/mL [15]: 68.1%; inhibition at 16 µg/mL [16]: 54.5%; IC50 [16]: 10.6 mg/L (≈ 17.8 µM); inhibition at 16 µg/mL [17]: 29.2%; IC50 [17]: > 16 mg/L; inhibition at 16 µg/mL [18]: 43.7%; IC50 [18]: > 16 mg/L; inhibition at 16 µg/mL [19]: 45%; IC50 [19]: 18.9 mg/L (≈ 31.7 µM); inhibition at 16 µg/mL [20]: 81.8%; IC50 [20]: 10.5 mg/L (≈ 17.7 µM)
